Measured values from patent US11339163B2, “BRaf inhibitors and use thereof for treatment of cutaneous reactions” (Lutris Pharma Ltd., priority 2017, dated 2022).

Assays:
Assay in all cases: KinaseProfiler kinase selectivity assay
Type in all cases: biochemical
[1] = target: PI3 Kinase (p110α/p85α)(h) (Homo sapiens, UniProt P42336)
Method: (§1) All compounds were prepared to 50× final assay concentration in 100% DMSO. This working stock of the compound was added to the assay well as the first component in the reaction, followed by the remaining components. In the standard KinaseProfiler™ service, there is no pre-incubation step between the compound and the kinase prior to initiation of the reaction. The positive control wells contain all components of the reaction, except the compound of interest; however, DMSO (at a final concentration of 2%) is included in these wells to control for solvent effects. The blank wells contain all components of the reaction, with a reference inhibitor replacing the compound of interest. This abolishes kinase activity and establishes the base-line (0% kinase activity remaining).

EGFR(h) = EGFR(h) (Homo sapiens, UniProt P00533)
Method: as §1

CK2α2(h) = CK2α2(h) (Homo sapiens, UniProt P19784)
Method: as §1

Rsk1(h) = Rsk1(h) (Homo sapiens, UniProt Q15418)
Method: as §1

[2] = target: PI3 Kinase (p110δ/p85α)(h) (Homo sapiens, UniProt O00329)
Method: as §1

Plk3(h) = Plk3(h) (Homo sapiens, UniProt Q9H4B4)
Method: as §1

PKCθ(h) = PKCθ(h) (Homo sapiens, UniProt Q04759)
Method: as §1

[3] = target: PI3 Kinase (p110β/p85α)(h) (Homo sapiens, UniProt P42338)
Method: as §1

EphA5(h) = EphA5(h) (Homo sapiens, UniProt P54756)
Method: as §1

DRAK1(h) = DRAK1(h) (Homo sapiens, UniProt Q9UEE5)
Method: as §1

IGF-1R(h) = IGF-1R(h) (Homo sapiens, UniProt P08069)
Method: as §1

SAPK2a(h) = SAPK2a(h) (Homo sapiens, UniProt Q16539)
Method: as §1

CK1γ1(h) = CK1γ1(h) (Homo sapiens, UniProt Q9HCP0)
Method: as §1

Abl(h) = Abl(h) (Homo sapiens, UniProt P00519)
Method: as §1

CDK1/cyclinB(h) = CDK1/cyclinB(h) (Homo sapiens, UniProt P06493)
Method: as §1

PAK2(h) = PAK2(h) (Homo sapiens, UniProt Q13177)
Method: as §1

MKK7β(h) = MKK7β(h) (Homo sapiens, UniProt O14733)
Method: as §1

ASK1(h) = ASK1(h) (Homo sapiens, UniProt Q99683)
Method: as §1

PRAK(h) = PRAK(h) (Homo sapiens, UniProt Q8IW41)
Method: as §1

SPRK1(h) = SPRK1(h) (Homo sapiens, UniProt Q96SB4)
Method: as §1

CaMKI(h) = CaMKI(h) (Homo sapiens, UniProt Q14012)
Method: as §1

Mnk2(h) = Mnk2(h) (Homo sapiens, UniProt Q9HBH9)
Method: as §1

p70S6K(h) = p70S6K(h) (Homo sapiens, UniProt P23443)
Method: as §1

MEK1(h) = MEK1(h) (Homo sapiens, UniProt Q02750)
Method: as §1

PKA(h) = PKA(h) (Homo sapiens, UniProt P17612)
Method: as §1

AMPKα1(h) = AMPKα1(h) (Homo sapiens, UniProt Q13131)
Method: as §1

ALK(h) = ALK(h) (Homo sapiens, UniProt Q9UM73)
Method: as §1

IRAK4(h) = IRAK4(h) (Homo sapiens, UniProt Q9NWZ3)
Method: as §1

CDK9/cyclin T1(h) = CDK9/cyclin T1(h) (Homo sapiens, UniProt P50750)
Method: as §1

MAPKAP-K2(h) = MAPKAP-K2(h) (Homo sapiens, UniProt P49137)
Method: as §1

PKCα(h) = PKCα(h) (Homo sapiens, UniProt P17252)
Method: as §1

Chain of PI3 Kinase (p110β/p85α)(h) (P42338 whole entry): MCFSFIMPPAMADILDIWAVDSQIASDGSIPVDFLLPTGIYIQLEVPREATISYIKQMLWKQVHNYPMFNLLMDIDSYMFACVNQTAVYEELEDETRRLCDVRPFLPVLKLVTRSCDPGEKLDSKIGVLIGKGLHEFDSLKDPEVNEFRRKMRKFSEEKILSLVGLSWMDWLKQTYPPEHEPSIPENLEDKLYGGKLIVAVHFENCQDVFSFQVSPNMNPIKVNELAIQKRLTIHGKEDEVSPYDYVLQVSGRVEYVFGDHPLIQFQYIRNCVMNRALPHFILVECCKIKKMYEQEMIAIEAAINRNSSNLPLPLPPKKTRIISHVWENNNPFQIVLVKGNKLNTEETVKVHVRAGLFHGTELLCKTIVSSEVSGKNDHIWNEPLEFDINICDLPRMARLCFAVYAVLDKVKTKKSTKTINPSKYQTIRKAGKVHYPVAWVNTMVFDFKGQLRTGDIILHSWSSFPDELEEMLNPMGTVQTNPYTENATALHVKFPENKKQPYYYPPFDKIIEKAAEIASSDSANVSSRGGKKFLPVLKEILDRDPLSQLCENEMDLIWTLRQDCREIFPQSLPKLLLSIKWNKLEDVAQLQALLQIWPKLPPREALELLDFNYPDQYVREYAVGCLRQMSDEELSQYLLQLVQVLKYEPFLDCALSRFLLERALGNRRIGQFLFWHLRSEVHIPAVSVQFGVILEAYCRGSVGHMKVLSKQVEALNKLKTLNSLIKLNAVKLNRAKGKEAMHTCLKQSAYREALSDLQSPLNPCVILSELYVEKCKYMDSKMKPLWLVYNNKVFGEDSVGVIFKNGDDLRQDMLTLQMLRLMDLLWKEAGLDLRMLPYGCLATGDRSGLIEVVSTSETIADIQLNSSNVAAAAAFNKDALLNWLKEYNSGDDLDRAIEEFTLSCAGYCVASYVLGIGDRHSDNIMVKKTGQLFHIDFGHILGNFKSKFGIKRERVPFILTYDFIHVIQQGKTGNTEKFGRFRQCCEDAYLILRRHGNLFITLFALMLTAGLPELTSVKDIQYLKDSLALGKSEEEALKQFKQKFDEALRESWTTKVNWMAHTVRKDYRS
Chain of PI3 Kinase (p110β/p85α)(h) (P27986 whole entry partner): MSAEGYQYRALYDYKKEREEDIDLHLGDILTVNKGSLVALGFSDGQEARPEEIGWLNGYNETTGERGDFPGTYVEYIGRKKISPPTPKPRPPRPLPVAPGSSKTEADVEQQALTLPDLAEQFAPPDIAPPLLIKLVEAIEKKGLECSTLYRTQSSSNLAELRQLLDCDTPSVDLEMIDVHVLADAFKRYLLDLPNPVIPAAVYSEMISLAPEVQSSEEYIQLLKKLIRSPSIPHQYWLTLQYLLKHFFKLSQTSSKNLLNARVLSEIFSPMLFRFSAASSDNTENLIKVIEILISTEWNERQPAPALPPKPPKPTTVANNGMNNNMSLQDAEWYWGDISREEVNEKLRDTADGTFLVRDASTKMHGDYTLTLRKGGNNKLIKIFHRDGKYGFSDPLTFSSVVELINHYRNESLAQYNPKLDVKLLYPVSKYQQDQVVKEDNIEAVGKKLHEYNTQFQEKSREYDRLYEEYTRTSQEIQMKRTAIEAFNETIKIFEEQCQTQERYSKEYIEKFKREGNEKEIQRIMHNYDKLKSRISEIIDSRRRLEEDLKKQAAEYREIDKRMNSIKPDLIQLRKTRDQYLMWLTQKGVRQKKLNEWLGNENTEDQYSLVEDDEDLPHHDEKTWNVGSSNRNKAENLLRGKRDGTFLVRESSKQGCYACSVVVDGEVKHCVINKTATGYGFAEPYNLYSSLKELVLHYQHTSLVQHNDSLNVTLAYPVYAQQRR
Chain of IRAK4(h) (Q9NWZ3 whole entry): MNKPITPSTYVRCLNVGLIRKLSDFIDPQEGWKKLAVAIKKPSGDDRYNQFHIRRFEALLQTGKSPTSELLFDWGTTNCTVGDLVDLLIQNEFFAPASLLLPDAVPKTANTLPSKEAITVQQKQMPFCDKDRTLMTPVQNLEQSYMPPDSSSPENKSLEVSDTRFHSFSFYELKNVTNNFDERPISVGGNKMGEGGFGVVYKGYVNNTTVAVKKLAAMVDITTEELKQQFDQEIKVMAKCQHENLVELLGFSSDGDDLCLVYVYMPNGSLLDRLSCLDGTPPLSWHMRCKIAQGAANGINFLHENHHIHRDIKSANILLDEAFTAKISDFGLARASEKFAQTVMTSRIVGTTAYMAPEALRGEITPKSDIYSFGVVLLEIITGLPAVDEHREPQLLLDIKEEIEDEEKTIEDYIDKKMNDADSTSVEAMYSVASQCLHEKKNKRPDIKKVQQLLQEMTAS
Chain of CK2α2(h) (P19784 whole entry): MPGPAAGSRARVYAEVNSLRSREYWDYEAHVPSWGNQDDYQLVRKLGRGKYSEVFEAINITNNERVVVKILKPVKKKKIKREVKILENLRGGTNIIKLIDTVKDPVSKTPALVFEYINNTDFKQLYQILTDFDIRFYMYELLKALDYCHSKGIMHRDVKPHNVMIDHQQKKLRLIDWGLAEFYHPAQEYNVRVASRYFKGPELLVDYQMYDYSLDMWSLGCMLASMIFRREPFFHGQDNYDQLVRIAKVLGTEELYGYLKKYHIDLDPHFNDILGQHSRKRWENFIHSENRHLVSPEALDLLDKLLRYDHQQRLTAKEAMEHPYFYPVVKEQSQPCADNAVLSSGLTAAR
Chain of MKK7β(h) (O14733 whole entry): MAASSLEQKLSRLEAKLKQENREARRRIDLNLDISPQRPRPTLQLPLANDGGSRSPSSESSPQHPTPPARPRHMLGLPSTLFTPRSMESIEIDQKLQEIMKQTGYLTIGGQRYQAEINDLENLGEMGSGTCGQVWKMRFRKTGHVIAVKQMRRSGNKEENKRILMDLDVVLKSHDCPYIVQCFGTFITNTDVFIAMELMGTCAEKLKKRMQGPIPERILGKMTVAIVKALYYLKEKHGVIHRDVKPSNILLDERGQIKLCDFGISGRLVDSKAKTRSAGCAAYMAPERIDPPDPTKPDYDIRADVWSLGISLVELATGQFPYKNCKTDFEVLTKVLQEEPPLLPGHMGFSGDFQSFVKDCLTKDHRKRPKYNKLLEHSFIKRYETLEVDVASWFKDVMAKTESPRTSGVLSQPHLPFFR
Chain of IGF-1R(h) (P08069 31-1367): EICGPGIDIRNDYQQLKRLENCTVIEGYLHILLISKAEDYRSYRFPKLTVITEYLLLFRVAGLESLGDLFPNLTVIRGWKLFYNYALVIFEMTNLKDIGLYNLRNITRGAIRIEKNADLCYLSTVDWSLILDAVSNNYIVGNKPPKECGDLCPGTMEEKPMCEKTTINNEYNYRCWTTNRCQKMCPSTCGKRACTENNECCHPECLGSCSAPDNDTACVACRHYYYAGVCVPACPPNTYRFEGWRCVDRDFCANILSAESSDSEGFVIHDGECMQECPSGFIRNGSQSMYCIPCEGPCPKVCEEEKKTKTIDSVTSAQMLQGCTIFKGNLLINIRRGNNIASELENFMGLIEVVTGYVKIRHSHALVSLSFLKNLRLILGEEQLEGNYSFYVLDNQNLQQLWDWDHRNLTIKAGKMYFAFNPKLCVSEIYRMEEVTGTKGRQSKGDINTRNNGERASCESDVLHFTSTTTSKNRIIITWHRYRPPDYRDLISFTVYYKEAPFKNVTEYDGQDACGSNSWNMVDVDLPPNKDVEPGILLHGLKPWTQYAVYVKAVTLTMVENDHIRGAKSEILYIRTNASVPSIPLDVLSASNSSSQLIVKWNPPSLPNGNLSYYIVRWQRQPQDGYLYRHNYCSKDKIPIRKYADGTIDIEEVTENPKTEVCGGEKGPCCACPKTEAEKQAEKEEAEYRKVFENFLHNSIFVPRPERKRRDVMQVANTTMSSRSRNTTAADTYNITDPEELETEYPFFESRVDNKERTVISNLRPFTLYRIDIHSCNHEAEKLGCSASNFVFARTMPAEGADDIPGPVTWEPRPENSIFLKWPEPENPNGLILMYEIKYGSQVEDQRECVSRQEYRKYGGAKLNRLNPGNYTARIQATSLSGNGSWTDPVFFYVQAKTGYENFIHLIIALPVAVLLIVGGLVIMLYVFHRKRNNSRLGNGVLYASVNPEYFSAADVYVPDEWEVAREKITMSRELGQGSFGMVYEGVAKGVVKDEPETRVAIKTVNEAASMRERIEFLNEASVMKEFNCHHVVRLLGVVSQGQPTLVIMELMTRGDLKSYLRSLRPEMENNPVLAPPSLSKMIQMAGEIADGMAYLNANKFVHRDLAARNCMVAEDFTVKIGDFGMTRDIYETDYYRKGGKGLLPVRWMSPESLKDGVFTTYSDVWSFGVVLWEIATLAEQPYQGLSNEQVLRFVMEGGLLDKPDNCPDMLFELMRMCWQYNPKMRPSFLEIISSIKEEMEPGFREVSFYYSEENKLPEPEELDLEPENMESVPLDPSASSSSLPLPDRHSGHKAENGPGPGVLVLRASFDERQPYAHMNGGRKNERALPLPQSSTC

For `Cc1ccc2c(Nc3cccc(OC(F)(F)F)c3)nccc2c1Nc1ncccc1-c1ncnc2[nH]cnc12` [LUT014], the remaining activity at 0.01 µM ([1]; Lut014 @ 0.01 μM) was 92%, the remaining activity at 1 µM ([1]; Lut014 @ 1 μM) was 84% and the remaining activity at 0.01 µM (EGFR(h); Lut014 @ 0.01 μM) was 98%. It also gave a remaining activity at 1 µM (EGFR(h); Lut014 @ 1 μM) of 100%, a remaining activity at 0.01 µM (CK2α2(h); Lut014 @ 0.01 μM) of 98% and a remaining activity at 1 µM (CK2α2(h); Lut014 @ 1 μM) of 92%. It also gave a remaining activity at 0.01 µM (Rsk1(h); Lut014 @ 0.01 μM) of 106%, a remaining activity at 1 µM (Rsk1(h); Lut014 @ 1 μM) of 112% and a remaining activity at 0.01 µM ([2]; Lut014 @ 0.01 μM) of 96%. It also gave a remaining activity at 1 µM ([2]; Lut014 @ 1 μM) of 94%, a remaining activity at 0.01 µM (Plk3(h); Lut014 @ 0.01 μM) of 85% and a remaining activity at 1 µM (Plk3(h); Lut014 @ 1 μM) of 87%. For the same molecule, the remaining activity at 0.01 µM (PKCθ(h); Lut014 @ 0.01 μM) was 106%, the remaining activity at 1 µM (PKCθ(h); Lut014 @ 1 μM) was 109% and the remaining activity at 0.01 µM ([3]; Lut014 @ 0.01 μM) was 101%. For the same molecule, the remaining activity at 1 µM ([3]; Lut014 @ 1 μM) was 95%, the remaining activity at 0.01 µM (EphA5(h); Lut014 @ 0.01 μM) was 99% and the remaining activity at 1 µM (EphA5(h); Lut014 @ 1 μM) was 56%. For the same molecule, the remaining activity at 0.01 µM (DRAK1(h); Lut014 @ 0.01 μM) was 99%, the remaining activity at 1 µM (DRAK1(h); Lut014 @ 1 μM) was 117% and the remaining activity at 0.01 µM (IGF-1R(h); Lut014 @ 0.01 μM) was 88%. For the same molecule, the remaining activity at 1 µM (IGF-1R(h); Lut014 @ 1 μM) was 86%, the remaining activity at 0.01 µM (SAPK2a(h); Lut014 @ 0.01 μM) was 97% and the remaining activity at 1 µM (SAPK2a(h); Lut014 @ 1 μM) was 54%. The remaining activity at 0.01 µM (CK1γ1(h); Lut014 @ 0.01 μM) was 94%, the remaining activity at 1 µM (CK1γ1(h); Lut014 @ 1 μM) was 101% and the remaining activity at 0.01 µM (Abl(h); Lut014 @ 0.01 μM) was 92%. The remaining activity at 1 µM (Abl(h); Lut014 @ 1 μM) was 25%, the remaining activity at 0.01 µM (CDK1/cyclinB(h); Lut014 @ 0.01 μM) was 113% and the remaining activity at 1 µM (CDK1/cyclinB(h); Lut014 @ 1 μM) was 102%. The remaining activity at 0.01 µM (PAK2(h); Lut014 @ 0.01 μM) was 95%, the remaining activity at 1 µM (PAK2(h); Lut014 @ 1 μM) was 111% and the remaining activity at 0.01 µM (MKK7β(h); Lut014 @ 0.01 μM) was 100%. For the same molecule, the remaining activity at 1 µM (MKK7β(h); Lut014 @ 1 μM) was 103%, the remaining activity at 0.01 µM (ASK1(h); Lut014 @ 0.01 μM) was 109% and the remaining activity at 1 µM (ASK1(h); Lut014 @ 1 μM) was 99%. It also gave a remaining activity at 0.01 µM (PRAK(h); Lut014 @ 0.01 μM) of 101%, a remaining activity at 1 µM (PRAK(h); Lut014 @ 1 μM) of 103% and a remaining activity at 0.01 µM (SPRK1(h); Lut014 @ 0.01 μM) of 105%. The remaining activity at 1 µM (SPRK1(h); Lut014 @ 1 μM) was 100%, the remaining activity at 0.01 µM (CaMKI(h); Lut014 @ 0.01 μM) was 101% and the remaining activity at 1 µM (CaMKI(h); Lut014 @ 1 μM) was 97%. For the same molecule, the remaining activity at 0.01 µM (Mnk2(h); Lut014 @ 0.01 μM) was 112%, the remaining activity at 1 µM (Mnk2(h); Lut014 @ 1 μM) was 107% and the remaining activity at 0.01 µM (p70S6K(h); Lut014 @ 0.01 μM) was 108%. It also gave a remaining activity at 1 µM (p70S6K(h); Lut014 @ 1 μM) of 97%, a remaining activity at 0.01 µM (MEK1(h); Lut014 @ 0.01 μM) of 98% and a remaining activity at 1 µM (MEK1(h); Lut014 @ 1 μM) of 105%. It also gave a remaining activity at 0.01 µM (PKA(h); Lut014 @ 0.01 μM) of 114%, a remaining activity at 1 µM (PKA(h); Lut014 @ 1 μM) of 106% and a remaining activity at 0.01 µM (AMPKα1(h); Lut014 @ 0.01 μM) of 106%. For the same molecule, the remaining activity at 1 µM (AMPKα1(h); Lut014 @ 1 μM) was 114%, the remaining activity at 0.01 µM (ALK(h); Lut014 @ 0.01 μM) was 150% and the remaining activity at 1 µM (ALK(h); Lut014 @ 1 μM) was 83%. For the same molecule, the remaining activity at 0.01 µM (IRAK4(h); Lut014 @ 0.01 μM) was 94%, the remaining activity at 1 µM (IRAK4(h); Lut014 @ 1 μM) was 109% and the remaining activity at 0.01 µM (CDK9/cyclin T1(h); Lut014 @ 0.01 μM) was 110%. For the same molecule, the remaining activity at 1 µM (CDK9/cyclin T1(h); Lut014 @ 1 μM) was 98%, the remaining activity at 0.01 µM (MAPKAP-K2(h); Lut014 @ 0.01 μM) was 110% and the remaining activity at 1 µM (MAPKAP-K2(h); Lut014 @ 1 μM) was 103%. It also gave a remaining activity at 0.01 µM (PKCα(h); Lut014 @ 0.01 μM) of 102% and a remaining activity at 1 µM (PKCα(h); Lut014 @ 1 μM) of 107%.
